From patent publication US6329349A, “Methods for reducing ischemic injury of the heart via the sequential administration of monophosphoryl lipid A and adenosine receptor agents” (priority 2000, dated 2001)
“Also recorded” adds a separate entry of the source. Where two headings read alike, the source gives them in different places.

How the values were obtained:
[1] = tested on: Rat Brain A1 and A2 -Receptors; conditions: radioligand binding, Table I; cited from earlier work
[2] = tested on: cultured chick ventricular myocytes; assay: Simulated ischemia (hypoxia and glucose deprivation) injury in cultured ventricular myocytes, percentage of cells killed; format: cell-based; conditions: for number of cells killed; agent present during prolonged ischemia after MLA pretreatment vs vehicle pretreatment: MLA 300 ng/ml for 4 h, 24 h prior, agent present during 90 min simulated ischemia; for percentage of myocytes killed; preconditioning effect of the agent after MLA pretreatment vs vehicle pretreatment: MLA (30 or 300 ng/ml) 24 h prior to 5 min exposure to the agent, 10 min agent-free, then 90 min simulated ischemia
Method: Ventricular cells were cultured from chick embryos 14 days in ovo (Spafas Inc., Storrs, Conn.) as previously described (16, 23). Cells were cultivated in a humidified 5% CO2 -95% air mixture at 37 C. […] The medium was changed to a HEPES-buffered medium containing (mM) 139 NaCl, 4.7 KCl, 0.5 MgCl2, 0.9 CaCl2, 5 HEPES (N-2-hydroxyethylpiperazine-N'-2-ethanesulfonic acid) and 2% fetal bovine serum, pH 7.4, 37 C. before exposing the myocytes to the various conditions at 37 C. Control myocytes were maintained in HEPES-buffered medium under room air. Hypoxia and glucose deprivation were used to induce and simulate ischemia in the cultured cells. Hypoxia was produced by placing the cells in a hypoxic incubator (NuAire) where O2 was replaced by N2 as previously described (16,23).
The extent of hypoxia-induced injury to the ventricular cell was quantitatively determined by the percentages of cells killed. To quantitate the % of cells killed, cells were exposed to a trypsin-EDTA Hanks' balanced salt solution for 10 minutes for detachment after the various treatment, followed by centrifugation (300×g for 10 minutes) and resuspension in culture media for counting in a hemocytometer. Only live cells sedimented and the cells counted represented those that survived (46). None of the sedimented cells subsequently counted included trypan blue. […] There was no protein in the culture media following a second 300×g centrifugation of resuspended cells previously treated with trypsin-EDTA.
The percentage of cells killed was calculated as the number of cells obtained from the control group (representing cells not subjected to any hypoxia or drug treatment) minus the number of cells from the treatment group divided by number of cells in control group multiplied by 100%. […]
In this experiment, myocytes were treated with either the vehicle (0.04% propylene glycol, 0.01% ethyl alcohol) or MLA 24 hours prior to a 5 minute exposure to 10 μM adenosine. Adenosine was removed by replacement of the culture medium with adenosine-free medium, and the cells were exposed to normal room air O2 for 10 minutes, followed by 90 minutes of simulated ischemia treatment.
The experimental protocol utilized in these studies entailed pretreatment of myocytes with MLA for a 4 hour period 24 hours prior to exposure of the cardiac myocytes to 90 minutes of simulated ischemia. During this 90 minute simulated ischemia period, several cardioprotective agents were administered individually to cells and their protective effects were assessed.
Additional experiments were performed to assess the differences in cardioprotection observed when MLA was administered as the second cardioprotective agent and an adenosine agonist, KATP channel opener or protein kinase C activator was administered as the first cardioprotective agent. The experiments were performed as follows: Cardiac myocytes were exposed to the first cardioprotective agent for 5 minutes and the agent was removed. Cells were then exposed to a period of simulated ischemia in the presence or absence of 300 ng/ml of MLA. The percentage of cells killed by simulated ischemia alone was 27±2% (n=9) in the absence of any treatment with any cardioprotective agent. When MLA was present during the simulated ischemia, the percentage of cells killed was reduced from 27±2% to 14±1.2%. When cells were exposed to 5 minutes of 10 μM pinacidil, a KATP channel opener followed by exposure to simulated ischemia (in the absence of MLA), the percentage of cells killed was 12.3±1. When the pinacidil-treated cells were exposed to simulated ischemia in the presence of MLA, the percentage of cells killed was reduced from 12.3±1% to 6.3±1.2% (n=3). When cells were exposed to 5 minutes of 1 μM PMA, a PKC activator, followed by exposure to simulated ischemia (in the absence of MLA), the percentage of cells killed was 14±1. […]

A3 adenosine receptor = conditions: cited from earlier work
A1 adenosine receptor = conditions: Table II; cited from earlier work
A2a adenosine receptor = conditions: Table II; cited from earlier work
A2 = conditions: table of Compound 8; cited from earlier work
[3] = 5 min exposure to first agent (10 μM pinacidil, 1 μM PMA or 10 μM adenosine), removed, then simulated ischemia in the absence of MLA
[4] = 5 min exposure to first agent (10 μM pinacidil, 1 μM PMA or 10 μM adenosine), removed, then simulated ischemia in the presence of 300 ng/ml MLA

## COc1ccc(/C=C/c2nc3c(c(=O)n(C)c(=O)n3C)n2C)c(OC)c1OC [43b]
[1]
  A1 /A2 ratio: 34

## COc1cc(/C=C/c2nc3c(c(=O)n(C)c(=O)n3C)n2C)cc(OC)c1 [33b]
[1]
  A1 /A2 ratio: > 200

## Cn1c(=O)c2c(nc(/C=C/c3cccc(NC(=O)CCC(=O)O)c3)n2C)n(C)c1=O [compound 24]
[1]
  A1 /A2 ratio: 250

## Cn1c(=O)c2c(nc(/C=C/c3cc(F)cc(F)c3)n2C)n(C)c1=O [34b]
[1]
  A1 /A2 ratio: 230

## COc1cc(/C=C/c2nc3c(c(=O)n(C)c(=O)n3C)n2C)cc(OC)c1OCCCCNC(=O)OC(C)(C)C [compound 39]
[1]
  A1 /A2 ratio: 42

## CNC(=O)[C@H]1O[C@@H](n2cnc3c(NCc4cccc(I)c4)ncnc32)[C@H](O)[C@@H]1O [IB-MECA, N^6-(3-iodobenzyl)adenosine-5'-N-methyluronamide]
[2]
  number of cells killed; agent present during prolonged ischemia after MLA pretreatment vs vehicle pretreatment: synergistic cardioprotective effect
  percentage of myocytes killed; preconditioning effect of the agent after MLA pretreatment vs vehicle pretreatment: significantly reduced the percentage of myocytes killed; also recorded: enhanced by pretreatment of myocytes with MLA

## COc1cc(/C=C/c2nc3c(c(=O)n(C)c(=O)n3C)n2C)cc(OC)c1O [compound 35]
[1]
  A1 /A2 ratio: 19

## COc1cccc(/C=C/c2nc3c(c(=O)n(C)c(=O)n3C)n2C)c1 [19b]
[1]
  A1 /A2 ratio: 64

## Cn1c(=O)c2c(nc(/C=C/c3cccc(C(F)(F)F)c3)n2C)n(C)c1=O [20b]
[1]
  A1 /A2 ratio: 25

## CCCn1c(=O)c2c(nc(/C=C/c3cc(OC)cc(OC)c3)n2C)n(CCC)c1=O [53b]
[1]
  A1 /A2 ratio: 110

## CCCCCCCCCCCCCC(=O)O[C@@H]1[C@@H](C)[C@@]2(O)[C@@H](C=C(CO)C[C@]3(O)C(=O)C(C)=C[C@@H]23)[C@@H]2C(C)(C)[C@]12OC(C)=O [PMA, Phorbol 12-myristate 13-acetate]
[2]; [3]
  percentage of cells killed: 14±1%
[2]; [4]
  percentage of cells killed: 10.5±1%
[2]
  percentage of myocytes killed; preconditioning effect of the agent after MLA pretreatment vs vehicle pretreatment: enhanced by pretreatment with MLA

## COc1cc(/C=C/c2nc3c(c(=O)n(C)c(=O)n3C)n2C)cc(OC)c1OC(C)=O [compound 36]
[1]
  A1 /A2 ratio: 93

## CCNC(=O)[C@H]1O[C@@H](n2cnc3c(NC(=O)Nc4ccccc4C(F)(F)F)ncnc32)[C@H](O)[C@@H]1O [Compound 4d, N^6-((2-trifluoromethyl)carbamoyl)adenosine-5'uronamide]
A3 adenosine receptor; Table II
  Ki: 54 nM
A1 adenosine receptor
  Ki: 384 nM
A2a adenosine receptor
  Ki: > 10 µM

## CCNC(=O)[C@H]1O[C@@H](n2cnc3c(NC(=O)Nc4cccc(I)c4)ncnc32)[C@H](O)[C@@H]1O [Compound 4q, N^6-((3-iodophenyl)carbamoyl)adenosine-5'uronamide]
A3 adenosine receptor; Table II
  Ki: 30 nM
A2a adenosine receptor
  Ki: 3.94 µM

## Cn1c(=O)c2c(nc(/C=C/c3cccc(N)c3)n2C)n(C)c1=O [22b]
[1]
  A1 /A2 ratio: 30

## COc1ccc(/C=C/c2nc3c(c(=O)n(C)c(=O)n3C)n2C)cc1OC [32b]
[1]
  A1 /A2 ratio: 70

## CNC(=O)[C@H]1O[C@@H](n2cnc3c(NOc4ccccc4)ncnc32)[C@H](O)[C@@H]1O [Compound 11, 6-(O-Phenylhydroxylamino)purine-9-beta-ribofuranoside-5'-N-methyluronamide]
A3 adenosine receptor; Table II
  Ki: 1340 nM
A1 adenosine receptor
  Ki: 2060 nM
A2a adenosine receptor
  Ki: 66.3 µM

## Monophosphoryl lipid A [MLA]
[2]; 300 ng/ml MLA present during simulated ischemia, no first agent, untreated 27±2%
  percentage of cells killed: 14±1.2%
[2]; MLA 30 and 300 ng/ml for 4 h, 24 h prior to 90 min simulated ischemia, vs untreated, p<0.01
  percentage of cell death in response to prolonged ischemia: significantly lowered the percentage of cell death
[2]; MLA 4 h pretreatment, 24 h later 5 min preconditioning ischemia, 10 min recovery, 90 min simulated ischemia
  percentage of cells killed during prolonged ischemia after preconditioning ischemia: dose-dependent reduction in the percentage of cells killed

## COc1ccc(/C=C/c2nc3c(c(=O)n(C)c(=O)n3C)n2C)cc1 [29b]
[1]
  A1 /A2 ratio: 44

## COc1cc(/C=C/c2nc3c(c(=O)n(C)c(=O)n3C)n2C)cc(OC)c1OC/C=C/CNC(=O)OC(C)(C)C [compound 42]
[1]
  A1 /A2 ratio: > 40

## OC[C@H]1O[C@@H](n2cnc3c(NC4CCCC4)nc(Cl)nc32)[C@H](O)[C@@H]1O [CCPA, 2-chloro-N^6-cyclopentyl-adenosine]
[2]
  number of cells killed; agent present during prolonged ischemia after MLA pretreatment vs vehicle pretreatment: greater reduction in the number of cells killed
  percentage of myocytes killed; preconditioning effect of the agent after MLA pretreatment vs vehicle pretreatment: significantly reduced the percentage of myocytes killed; also recorded: enhanced by pretreatment of myocytes with MLA

## COc1cc(/C=C/c2nc3c([nH]2)c(=O)n(C)c(=O)n3C)cc(OC)c1 [33a]
[1]
  A1 /A2 ratio: 25

## COc1cc(/C=C/c2nc3c(c(=O)n(C)c(=O)n3C)n2C)cc(OC)c1OC [44b]
[1]
  A1 /A2 ratio: 70

## COc1cc(/C=C/c2nc3c(c(=O)n(C)c(=O)n3C)n2C)cc(OC)c1OC/C=C/CN [compound 40]
[1]
  A1 /A2 ratio: 28

## COc1ccccc1/C=C/c1nc2c(c(=O)n(C)c(=O)n2C)n1C [17b]
[1]
  A1 /A2 ratio: 18

## Nc1ncnc2c1ncn2[C@@H]1O[C@H](CO)[C@@H](O)[C@H]1O [adenosine]
[2]; [3]
  percentage of cells killed: 12±1.4%
[2]; [4]
  percentage of cells killed: 7.4±1.2%
[2]
  percentage of myocytes killed; preconditioning effect of the agent after MLA pretreatment vs vehicle pretreatment: significantly decreased the percentage of myocytes killed

## C=CCn1c(=O)c2c(nc(/C=C/c3cc(OC)c(OC)c(OC)c3)n2C)n(CC=C)c1=O [compound 46]
[1]
  A1 /A2 ratio: 13

## NCCNC(=O)Cc1ccc(NC(=O)Cc2ccc(Nc3ncnc4c3ncn4[C@@H]3O[C@H](CO)[C@@H](O)[C@H]3O)cc2)cc1 [Compound 8]
A3 adenosine receptor; table of Compound 8
  Ki: 4 nM
A2
  Ki: 210 nM

## Cn1c(=O)c2c(nc(/C=C/c3cccc(NC(=O)OC(C)(C)C)c3)n2C)n(C)c1=O [compound 25]
[1]
  A1 /A2 ratio: 30

## COc1cc(/C=C/c2nc3c(c(=O)n(C)c(=O)n3C)n2C)cc(OC)c1OC/C=C/CNC(C)=O [compound 41]
[1]
  A1 /A2 ratio: > 50

## Cn1c(=O)c2c(nc(/C=C/c3cccc([N+](=O)[O-])c3)n2C)n(C)c1=O [21b]
[1]
  A1 /A2 ratio: 11

## CC(N/C(=N\C#N)Nc1ccncc1)C(C)(C)C (centres unmarked) [pinacidil]
[2]; [3]
  percentage of cells killed: 12.3±1%
[2]; [4]
  percentage of cells killed: 6.3±1.2%
[2]
  number of cells killed; agent present during prolonged ischemia after MLA pretreatment vs vehicle pretreatment: greater reduction in the number of cells killed
  percentage of myocytes killed; preconditioning effect of the agent after MLA pretreatment vs vehicle pretreatment: enhanced the preconditioning response mediated by pinacidil

## CC(=O)Nc1cccc(/C=C/c2nc3c(c(=O)n(C)c(=O)n3C)n2C)c1 [compound 23]
[1]
  A1 /A2 ratio: 240

## CCNC(=O)[C@H]1O[C@@H](n2cnc3c(NC4CCCCC4)ncnc32)[C@H](O)[C@@H]1O [N^6 -cyclohexyl NECA, N6-cyclohexyl 5'-N-ethylcarboxamidoadenosine]
A3 adenosine receptor; Table II
  Ki: 16 nM
A1 adenosine receptor
  Ki: 0.43 nM
A2a adenosine receptor
  Ki: 0.17 µM

## Cn1c(=O)c2c(nc(/C=C/c3cccc(N(C(=O)OC(C)(C)C)C(=O)OC(C)(C)C)c3)n2C)n(C)c1=O [compound 26]
[1]
  A1 /A2 ratio: 15

## COc1cc(/C=C/c2nc3c(c(=O)n(C)c(=O)n3C)n2C)cc(OC)c1OCCCCN [compound 38]
[1]
  A1 /A2 ratio: 36

## Cn1c(=O)c2c(nc(/C=C/c3cccc(F)c3)n2C)n(C)c1=O [27b]
[1]
  A1 /A2 ratio: 190
